Values joined by “and” are separate entries in the source; they are usually repeats but may differ in a detail not shown here. Identical values can stand only once.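 Grown in 96-well plates, cells were treated for 48 hours with each compound at five concentrations. Insufficient inhibition: endpoint recorded as highest concentration tested. At the GI50, growth is halved. TGI is the concentration that stops growth completely.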
What was measured:
Assay in all cases: DTP human tumour cell line panel, 48 h
TK-10 renal = tested on: TK-10 renal
SN12C renal = tested on: SN12C renal
SF-268 CNS = tested on: SF-268 CNS
MOLT-4 leukemia = tested on: MOLT-4 leukemia
SK-MEL-2 melanoma = tested on: SK-MEL-2 melanoma
HCC-2998 colon = tested on: HCC-2998 colon
EKVX NSCLC = tested on: EKVX NSCLC
A498 renal = tested on: A498 renal
NCI-H226 lung = tested on: NCI-H226 lung
CAKI-1 renal = tested on: CAKI-1 renal

Compound	GI50 (TK-10 renal)	TGI (TK-10 renal)	GI50 (SN12C renal)	TGI (SN12C renal)	GI50 (SF-268 CNS)	TGI (SF-268 CNS)	GI50 (MOLT-4 leukemia)	TGI (MOLT-4 leukemia)	GI50 (SK-MEL-2 melanoma)	TGI (SK-MEL-2 melanoma)	GI50 (HCC-2998 colon)	TGI (HCC-2998 colon)	GI50 (EKVX NSCLC)	TGI (EKVX NSCLC)	GI50 (A498 renal)	TGI (A498 renal)	GI50 (NCI-H226 lung)	TGI (NCI-H226 lung)	GI50 (CAKI-1 renal)	TGI (CAKI-1 renal)
CC(C)=CCc1c(O)c(C(=O)CC(C)C)c(O)c2c(-c3ccccc3)cc(=O)oc12	9.98 µM	> 50 µM	6.07 µM	> 50 µM	12.5 µM	> 50 µM	10.3 µM	> 50 µM	6.18 µM	28.7 µM	11.7 µM	> 50 µM	11.5 µM	> 50 µM	7.4 µM	28.8 µM	16.4 µM	> 50 µM	11 µM	48.3 µM
Clc1ccc(COC(Cn2ccnc2)c2ccc(Cl)cc2Cl)c(Cl)c1 (centres undefined)	10.7 µM	22.9 µM and 29.6 µM	2.63 µM	11.7 µM and 27.1 µM and 20.7 µM	7.87 µM	24.9 µM and 26.9 µM and 28.6 µM		15.1 µM and 22.2 µM and 13.9 µM		32.6 µM and 28.8 µM	3.78 µM	14.9 µM and 35.6 µM and 26.3 µM	5.64 µM	18.4 µM and 29.1 µM and 23.1 µM		17.6 µM and 27.3 µM and 19.6 µM	1.55 µM and 4.44 µM and 9.24 µM	3.31 µM and 23.2 µM and 24.2 µM	3.18 µM	12.9 µM and 26.8 µM and 23.4 µM
COC(=O)[C@H](Cc1cn(C)cn1)NC(=O)[C@@H](NC(=O)Nc1cc(C(F)(F)F)cc(C(F)(F)F)c1)C(C)(C)C	> 10 µM	> 10 µM	> 10 µM	> 10 µM	> 10 µM	> 10 µM	> 10 µM	> 10 µM	> 10 µM	> 10 µM	> 10 µM	> 10 µM			> 10 µM	> 10 µM	> 10 µM	> 10 µM	> 10 µM	> 10 µM
O=C1CCC(N2C(=O)c3cccc(NCCOCCOCCNC(=O)c4cc5c(o4)C(=O)c4ccccc4C5=O)c3C2=O)C(=O)N1 (centres undefined)	3.81 µM	9.08 µM	1.54 µM	2.92 µM	2.18 µM	5.72 µM	2.73 µM	7.11 µM	2.36 µM	6.46 µM	1.89 µM	3.57 µM	2.62 µM	8.39 µM	1.66 µM	3.12 µM	1.7 µM	3.8 µM	2.91 µM	10.1 µM
NC(Cc1c[nH]c2cc(F)ccc12)C(=O)O (centres undefined)	> 2500 µM	> 2500 µM	1330 µM	> 2500 µM	1270 µM	> 2500 µM	1340 µM	> 2500 µM	1910 µM	> 2500 µM	1640 µM	> 2500 µM	> 2500 µM	> 2500 µM	> 2500 µM	> 2500 µM	2480 µM	> 2500 µM		> 2500 µM
COc1c(Cl)[c]([Hg][O]C(C)=O)c(NCC(C)=O)c(OC)[c]1[Hg][O]C(C)=O	14.3 µM	27.7 µM	20.8 µM	36.3 µM	11.4 µM	30.8 µM	17.1 µM	48.5 µM	11.9 µM	24.9 µM	16.9 µM	39.1 µM	27.2 µM	65.2 µM	26.7 µM	71 µM	18.7 µM	43.1 µM	20.2 µM	35.1 µM
OCCCCCNc1ccnc2cc(Cl)ccc12				> 100 µM		> 100 µM		> 100 µM		> 100 µM		> 100 µM		> 100 µM		> 100 µM		> 100 µM		> 100 µM
CC(=Nc1ccccc1)C1=C(O)C(Cc2ccc(F)cc2)NC1=O (centres undefined)	2.1 µM	> 100 µM	5.76 µM	> 100 µM	4.45 µM	> 100 µM	3.18 µM	> 100 µM	0.423 µM	> 100 µM	1.73 µM	40.1 µM			0.444 µM	5.04 µM	39.5 µM	> 100 µM	2.9 µM	> 100 µM
CCCCCN(CCCCC)C(=O)[C@H](CCC(=O)OCc1ccccc1)NC(=O)c1cc2ccccc2[nH]1				> 100 µM		> 100 µM		> 100 µM		> 100 µM		> 100 µM		> 100 µM		> 100 µM		> 100 µM		> 100 µM
C/C=C(\C)C(=O)N1c2ccccc2CC1c1c(C)[nH]c2ccccc12 (centres undefined)		> 100 µM		> 100 µM				> 100 µM		69.6 µM		> 100 µM		> 100 µM		> 100 µM		> 100 µM		> 100 µM

— PubChem BioAssay (NCI)
